Among the data in PMC6444013, “Development of a fluorescence-based method for the rapid determination of Zika virus polymerase activity and the screening of antiviral drugs” (Scientific Reports, 2019) are IC50 values, retold here.

The experiment deals with T1, ZIKV RdRp (ZIKV NS5 RdRp domain) (Zika virus, UniProt A0A0X1LH65).
T1 construct: RdRp domain residues 275-903 of NS5, cut from the genome polyprotein; E. coli BL21(DE3)-pRIL; 75 kDa
Briefly: real-time SYTO […] fluorescence polymerization assay. The format is biochemical.

T1 sequence (A0A0X1LH65 2795-3423): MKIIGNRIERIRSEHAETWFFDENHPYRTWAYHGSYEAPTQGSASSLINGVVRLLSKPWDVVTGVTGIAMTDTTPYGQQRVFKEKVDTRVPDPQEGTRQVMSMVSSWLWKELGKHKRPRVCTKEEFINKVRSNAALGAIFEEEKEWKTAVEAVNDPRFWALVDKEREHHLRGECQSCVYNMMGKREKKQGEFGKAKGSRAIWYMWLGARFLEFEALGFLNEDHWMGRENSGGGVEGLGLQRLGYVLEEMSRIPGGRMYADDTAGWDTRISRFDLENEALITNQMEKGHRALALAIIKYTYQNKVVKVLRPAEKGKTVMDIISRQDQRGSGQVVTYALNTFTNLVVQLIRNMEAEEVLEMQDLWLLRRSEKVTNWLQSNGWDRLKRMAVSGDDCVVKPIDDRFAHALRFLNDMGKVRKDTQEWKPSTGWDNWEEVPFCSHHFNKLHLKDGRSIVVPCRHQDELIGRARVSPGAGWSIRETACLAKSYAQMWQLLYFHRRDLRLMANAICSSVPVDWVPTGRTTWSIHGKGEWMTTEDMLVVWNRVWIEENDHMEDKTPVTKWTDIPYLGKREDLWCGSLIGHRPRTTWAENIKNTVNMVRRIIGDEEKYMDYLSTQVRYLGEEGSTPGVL

Turning to `NC(=O)c1ncn([C@@H]2O[C@H](CO[P@@](=O)(O)O[P@](=O)(O)OP(=O)(O)O)[C@@H](O)[C@H]2O)n1` [ribavirin 5′-triphosphate], it took 946 ± 46 µM to reach half-maximal inhibition (IC50).

Take `Nc1ncnc2c1ncn2[C@@H]1O[C@H](COP(=O)(O)OP(=O)(O)OP(=O)(O)O)C[C@H]1O` [cordycepin 5′-triphosphate]: the IC50 – broadly, the concentration that gives 50% inhibition – was found to be 54 ± 7 µM.
